Measurements from PMC10306101, “Substrate-derived Sortase A inhibitors: targeting an essential virulence factor of Gram-positive pathogenic bacteria” (Chemical Science, 2023).
Where “and” joins values, the source holds several entries; their conditions need not be identical. Equal values may be shown once. Read-outs that look alike come from different tables or passages of the source. Non-standard residues stand in square brackets, D forms with d. Residues, ends and D or L forms follow the SMILES beside them. *: point of attachment. Bz = O=C(c1ccccc1)*; Sar = CNCC(=O)O

Columns and labels:
[1] = target: T1, SrtA (Staphylococcus aureus, UniProt Q2FV99); experiment: biochemical; set-up: species or system S. aureus; details: for FRET inhibition: 200 nM SrtA, 200 μM inhibitor, HEPES buffer; for FRET inhibition / inhibition at 200 µM: mean ± SE, triplicate; for IC50: IC50, inhibitor 1 μM to 1500 μM, corrected for molar extinction coefficient; for inhibition at 200 µM: read-out: FRET inhibition, 200 nM SrtA, 200 μM inhibitor, HEPES buffer
T1 construct: His6 (N); made in house; host or cells: E. coli BL21, pET21b plasmid
Method: In order to screen the activity of SrtA inhibitors, a FRET-based functional assay was used which employs an internally quenched fluorescent (IQF) substrate, Abz-LPETGK(Dnp)-NH2 (Fig. S37a ^†).[5] […] 5-((C4-Nitrobenzyl)thio)-1,3,4-thiadiazol-2-amine was used as a reference inhibitor in the experiment.[42] […]
Fluorescence resonance energy transfer assay
For the FRET assay, the compound 5-((4-nitrobenzyl) thio)-1,3,4-thiadiazol-2-amine was used as a reference and prepared by dissolving 3 µL of the available stock (10 mM) in […] HEPES and 1% DMSO to afford a 300 µM stock concentration for the assay. This reference compound […]
FRET assay was performed with an internally quenched fluorogenic (IQF) substrate to determine the inhibitory activity of the synthesized peptidomimetics. The assay was performed in a 30 μl reaction mixture in HEPES buffer (50 mM HEPES, 150 mM NaCl, 5 mM CaCl2, 0.05% Tween20, pH 7.5). SrtA solution (200 nM) was preincubated with compounds (200 μM) for 15 min at 22 °C followed by the addition of the substrate solution (25 μM Abz-LPETGK(Dnp)-NH2, 5 mM H-Gly3-OH, final assay concentration) in the same buffer. The cleavage of the Abz/Dnp-substrate was quantified by an increase in the fluorescence signal.
The fluorescence signal was monitored each minute for 45 minutes and plotted to obtain the fluorescence rate as a line curve. The assay was performed in 384 well Corning NBS microplates (flat bottom, no lid, low flange, non-binding surface, non-sterile, white polystyrene).
Fluorescence intensity was measured at emission and excitation wavelengths of […] using a Spectramax iD5 plate reader (Molecular Devices, San Jose, CA, USA). Triplicate measurements were taken for each data point to ensure the reproducibility of the results. The average value of the fluorescence signal readouts was plotted against time over […] for each compound to produce a line curve using Origin. The reference compound was used in the experiment to act as a positive control. The slope of each compound curve (Sx) and the slope of the substrate (S0) were extracted using the linear fit function in Microsoft Origin 2019. The percent inhibition was calculated according to the following equation: inhibitory rate = (1 – Sx/S 0) × 100%. For IC50 values, Sx values at different concentrations were plotted against log transformed concentration values and fitted with a sigmodial fit using the DoseResp function using Origin. The bottom asymptote of the dose-response curve was fixed at 0. The data were reported as mean ± SE%. […]

[2] = system: S. aureus strain CCUG10778; experiment: Growth profiling of S. aureus (absorbance at 600 nm); format: cell-based; details: for effect on bacterial growth (absorbance plateau, OD600): 2 to 128 μg mL^−1, TSB medium, up to 48 hours
Method: To assess whether our most promising compounds have a possibility of being potential antivirulent compounds, they were tested with pathogenic S. aureus bacteria to assess the peptidomimetic inhibitors for their ability to inhibit bacterial growth. Firstly, our compounds were incubated with S. aureus bacteria in a 96-well plate in Tryptic Soy Broth (TSB) medium, while we also included the reference compound used in the single-point in vitro inhibition studies. So far, the covalent binding thiadiazol reference compound was not tested in this respect, but was one of the most promising compounds identified in an earlier screening campaign.[42] The inhibitors were added at various concentrations, ranging from 2 μg mL^−1 to 128 μg mL^−1, and the absorbance at 600 nm was measured as an indication of their optical density (OD600) and by that the bacteria's ability to propagate in liquid media. In the negative control experiments, the bacteria consistently reached an OD600 of 0.6 between 6 and 12 hours (Fig. 3). […]
For the growth profiling experiments the S. aureus strain CCUG10778 was cultured overnight in sterile TSB medium and diluted 1:100 by adding 1 μL into TSB medium in a sterilized, clear polystyrene 96-well plate to a final assay volume of 100 μL. Subsequently, peptides were added to the bacteria from filter sterilized stocks in MQ-H2O to give 2, 8, 32 and 128 μg/ml final concentrations. Then, bacteria were incubated at 37 °C for 3, 6, 12, 24, 36 or 48 hours and their absorbance was measured at 600 nm using a Varioskan Lux microplate reader (Thermo Fisher Scientific, Waltham, MA, USA). All individual samples were carried out in triplicate. […]
Then, bacteria […]
were incubated at 37 °C for 24 hours and centrifuged for 3 minutes at 3000 rpm in an Eppendorf Microstar 30r centrifuge. The supernatant was discarded and the cells were washed once with sterilized PBS and centrifuged. 100 μL PBS-T (PBS + 0.1% Triton-X) was added to the cells for 15 minutes to induce cell membrane permeabilization. After removal of the PBS-T by centrifugation, 100 μL of 5 μM Sytox Green (Invitrogen, Waltham, MA, USA) solution in PBS

[3] = system: SrtA; details: cited from earlier work
[4] = system: S. aureus; experiment: Sytox Green fluorescence measurement of S. aureus incubated with inhibitors; format: cell-based; details: for Fluorescence value (Sytox Green, 533 nm): 24 hours, control 294.0 ± 0.1
Method: To achieve this, S. aureus was again incubated with our peptidomimetic inhibitors, specifically, 18, 22, 23 and 24 at 8, 32 and 128 μg mL^−1 and harvested after 24 hours to ensure the bacteria reach their growth plateau. Peptide 24 was included to confirm the influence of the N-terminal benzyl group. The bacterial cells were permeabilized and their […] were labelled using Sytox Green and subsequently their fluorescence was measured quantitatively. […] Bacteria incubated with 32 and 128 μg mL^−1 of 18 as well as 128 μg mL^−1 of 22 were also imaged using fluorescence microscopy (Fig. 4). In the control sample, planktonic bacteria could be abundantly observed (Fig. 4a). While it was hard to distinguish the microscopy images for the less strong inhibition (Fig. 4b and c), it became evident from the sample with 128 μg mL^−1 of 18 that visually bacterial growth was affected as well (Fig. 4d) where the bacteria were much more sparsely distributed in the sample. […]
For the fluorescence experiments S. aureus was cultured overnight in sterile TSB medium and diluted 1:250 by adding 2.5 μL bacterial culture into TSB medium in sterilized 1.5 mL Eppendorf tubes to a final volume of 500 μL. Subsequently, peptides were added to the bacteria from filter sterilized stocks in MQ-H2O to give 8, 32 and 128 μg/ml final concentrations. Then, bacteria were incubated at 37 °C for 24 hours and centrifuged for 3 minutes at 3000 rpm in an Eppendorf Microstar 30r centrifuge. The supernatant was discarded and the cells were washed once with sterilized PBS and centrifuged. 100 μL PBS-T (PBS + 0.1% Triton-X) was added to the cells for 15 minutes to induce cell membrane permeabilization. After removal of the PBS-T by centrifugation, 100 μL of 5 μM Sytox Green (Invitrogen, Waltham, MA, USA) solution in PBS […]
was added and the cells were stained for 30 minutes, centrifuged and washed with PBS twice.
For the fluorescence measurements, the cells were resuspended with 100 μL of PBS and added in a sterilized, white plastic polystyrene 96-well plate and their fluorescence was measured by exciting the samples at 488nm and measuring the fluorescence intensity at 533 nm in a microplate reader. All individual samples were carried out in duplicate. For the fluorescence microscopy experiments, the cells were treated in the same, but resuspended in 10 μL of PBS and 5 μL of bacterial suspension was spotted on a glass target plate dipped in a melted solution of 1.2% agarose in Tris-HCl (50 mM) to ensure fixation of the sample. The sledes were covered by a cover glass and observed on an Axio Imager Z2m fluorescence microscope (Zeiss, Jena, Germany) at 100 times magnification at the emission wavelength of […]
Biofilm inhibition assays
For the biofilm inhibition experiments the S. aureus strain CCUG10778 was cultured overnight in sterile BHI broth. A sterilized, clear polystyrene 96-well plate was prepared by coating with plasma by addition of 20% of final assay volume rabbit plasma to the wells and incubating overnight at 4 °C. Then, the cultured strain was diluted 1:100 by adding 2 μL into BHI medium on the plasma coated plate to a total volume of 200 μL. Subsequently, peptides were added to the bacteria from filter sterilized stocks in MQ-H2O to give 8, 32 and 128 μg/ml final concentrations and incubated for 12 hours at 37 °C without shaking. The supernatant was removed and the wells were rinsed with PBS and 100 μL of 1% crystal violet solution (diluted in PBS) was added and the biofilms were stained for 10 minutes. The wells were washed with PBS twice and 200 μL of a 95% ethanol solution in water was added to solubilize the cells for 30 minutes. 100 μL was transferred into a new 96-well plate and the absorbance measured at 595 nm using a Varioskan Lux microplate reader. All individual samples were carried out in […]
All computational studies and analysis steps were performed employing the YASARA molecular modeling program.6, 7
Molecular graphics were created with YASARA (www.yasara.org) and POVRay […]

[5] = target: T1, SrtA; format: biochemical, S. aureus; details: 200 nM SrtA, inhibitor at 10 μM (detector oversaturation at 200 μM)
[6] = system: S. aureus strain CCUG10778 biofilm; details: BHI, rabbit plasma coated plate

T1 sequence (Q2FV99 60-206): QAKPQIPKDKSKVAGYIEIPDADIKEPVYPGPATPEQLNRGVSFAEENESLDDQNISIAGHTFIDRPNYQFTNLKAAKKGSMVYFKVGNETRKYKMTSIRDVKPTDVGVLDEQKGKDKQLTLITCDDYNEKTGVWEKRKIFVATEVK

LPET-Sar [Compound 6]
FRET inhibition [1]: 19.4 ± 2.6%

BzLPRDA [Compound 11]
FRET inhibition [1]: 37% and 37.2 ± 3.1%

H-LPETP-NH2 [Compound 7, LPETP]
IC50 [1]: 136.3 ± 1.2 µM

AcLPRDA [Compound 10]
FRET inhibition [1]: 20.7 ± 2.9%

CC(C)C[C@H](N)C(=O)N1CCC[C@H]1C(=O)N[C@@H](CCCNC(=N)N)C(=O)N[C@@H](CC(=O)O)C(=O)N(C)CC(N)=O [Compound 5, LPRD-Sar] (H-LPRD[Sar]-NH2)
FRET inhibition [1]: 68.5 ± 2.6%
IC50 [1]: 18.9 ± 1.2 µM
inhibition at 200 µM [1]: 69%

Nc1nnc(SCc2ccc([N+](=O)[O-])cc2)s1 [Reference (0), 5-((4-nitrobenzyl)thio)-1,3,4-thiadiazol-2-amine, reference compound]
FRET inhibition [1]: 77.1 ± 4.1%
effect on bacterial growth (absorbance plateau, OD600) [2]: did not show any activity
IC50 ([3]; reported covalent inhibitor, ref 42 (supplement ref 4)): 26 ± 0.7 µM
IC50 ([3]; reported covalent inhibitor, ref 42 (supplement ref 4), listed as 5-((C4-Nitrobenzyl)thio)-1,3,4-thiadiazol-2-amine): ~26 µM

ChLPRDA [Compound 12]
FRET inhibition [1]: 21.6 ± 4.2%

CbzLPRDA [Compound 14]
FRET inhibition [1]: 17.0 ± 2.8%

H-LPRDF-NH2 [Compound 24, LPRDF]
IC50 [1]: 136.9 ± 1.2 µM
inhibition at 200 µM [1]: 42.2 ± 6%
Fluorescence value (Sytox Green, 533 nm) ([4]; 8 μg/ml): 315.7 ± 0.6
Fluorescence value (Sytox Green, 533 nm) ([4]; 32 μg/ml): 299.9 ± 1.2
Fluorescence value (Sytox Green, 533 nm) ([4]; 128 μg/ml): 283.0 ± 0.9

LPRDA-Ado [Compound 2]
FRET inhibition [1]: 30.4 ± 2.8%

2NapLPRDA [Compound 13]
effect on bacterial growth (absorbance plateau, OD600) [2]: did not have any effect
FRET inhibition [5]: 47% and 47.4 ± 1.1 (at 10 μM) %

PEG2000-LPRDA-NH2
IC50 ([3]; reported SrtA inhibitor): 10.6 µM

H2N-LPRDA-OH [Compound 1]
FRET inhibition [1]: 29.2 ± 2.6%

ELPRDA [Compound 27]
FRET inhibition [1]: 26% and 26.2 ± 2.0%

BzLPETP [Compound 19]
FRET inhibition [1]: 15.1 ± 3.8%

CC(C)C[C@H](NC(=O)c1ccccc1)C(=O)N1CCC[C@H]1C(=O)N[C@@H](CCCNC(=N)N)C(=O)N[C@@H](CC(=O)O)C(=O)N(C)CC(N)=O [Compound 18, BzLPRDSar] (Bz-LPRD[Sar]-NH2)
IC50 [1]: 57.4 ± 1.1 µM
inhibition at 200 µM [1]: 108 ± 6.9%
biofilm inhibition ([6]; 8 μg mL^−1, 12 hours): 52%
biofilm inhibition ([6]; 32 μg mL^−1, 12 hours): 73%
biofilm inhibition ([6]; 128 μg mL^−1, 12 hours): 95%

GTEPL [Compound 9]
FRET inhibition [1]: 38% and 37.7 ± 3.1%

Ado-LPRDA [Compound 3]
FRET inhibition [1]: 22.6 ± 2.8%

H-FLPRDA-NH2 [Compound 22, FLPRDA]
FRET inhibition [1]: 70.1 ± 5.7%
IC50 [1]: 185.3 ± 1.5 µM
inhibition at 200 µM [1]: 70%
decrease in absorbance compared to the control ([2]; 128 μg mL^−1, 48 hours, OD600): 22%
effect on bacterial growth (absorbance plateau, OD600) [2]: clear effect on the plateau of the absorbance
Fluorescence value (Sytox Green, 533 nm) ([4]; 8 μg/ml): 302.3 ± 0.5
Fluorescence value (Sytox Green, 533 nm) ([4]; 32 μg/ml): 297.4 ± 0.3
decrease in fluorescence signal (in words) ([4]; 128 μg mL^−1, 24 hours): minor effect
Fluorescence value (Sytox Green, 533 nm) ([4]; 128 μg/ml): 275.2 ± 1.1

CC(C)C[C@H](NC(=O)c1ccccc1)C(=O)N1CCC[C@H]1C(=O)N[C@@H](CCCNC(=N)N)C(=O)N[C@@H](CC(=O)O)C(=O)N[C@@H](Cc1ccccc1)C(N)=O [Compound 23, BzLPRDF] (Bz-LPRDF-NH2)
IC50 [1]: 114 ± 1.3 µM
inhibition at 200 µM [1]: 113 ± 26%

LPRDP [Compound 20]
FRET inhibition [1]: 32% and 32.3 ± 8.7%

KSFLPATGGAE [Compound 8]
FRET inhibition [1]: 18% and 18.1 ± 2.9%

BzLPRDP [Compound 21]
FRET inhibition [1]: 31.0 ± 7.6%
